Publication PMC6272942, “Lead Discovery of Type II BRAF V600E Inhibitors Targeting the Structurally Validated DFG-Out Conformation Based upon Selected Fragments” (Molecules, 2016)

Target: BRAF V600E (Homo sapiens, UniProt P15056, V600E)
Test: LanthaScreen biochemical kinase assay

BRAF V600E, sequence (P15056 whole entry V600E): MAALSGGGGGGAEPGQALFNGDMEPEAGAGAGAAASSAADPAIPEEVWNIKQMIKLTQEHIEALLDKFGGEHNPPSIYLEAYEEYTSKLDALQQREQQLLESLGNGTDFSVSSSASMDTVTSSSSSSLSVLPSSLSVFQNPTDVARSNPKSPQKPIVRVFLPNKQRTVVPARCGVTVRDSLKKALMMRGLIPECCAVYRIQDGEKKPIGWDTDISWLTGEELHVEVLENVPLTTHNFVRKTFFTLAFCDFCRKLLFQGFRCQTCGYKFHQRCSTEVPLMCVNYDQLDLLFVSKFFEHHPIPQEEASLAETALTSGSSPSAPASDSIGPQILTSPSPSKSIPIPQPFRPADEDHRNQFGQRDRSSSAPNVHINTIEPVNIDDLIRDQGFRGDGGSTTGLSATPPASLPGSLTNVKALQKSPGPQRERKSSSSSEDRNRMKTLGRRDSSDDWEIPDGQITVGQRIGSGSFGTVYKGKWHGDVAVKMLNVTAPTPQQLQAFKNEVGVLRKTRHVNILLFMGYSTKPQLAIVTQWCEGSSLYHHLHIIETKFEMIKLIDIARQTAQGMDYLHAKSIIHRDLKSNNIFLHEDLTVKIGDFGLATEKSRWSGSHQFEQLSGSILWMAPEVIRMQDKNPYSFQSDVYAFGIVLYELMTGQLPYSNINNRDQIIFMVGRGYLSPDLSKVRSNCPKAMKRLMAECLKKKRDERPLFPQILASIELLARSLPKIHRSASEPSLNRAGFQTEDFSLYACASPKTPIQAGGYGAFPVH

| IC50 [µM] | SMILES |
| --- | --- |
| 0.298 | Cc1nc(Nc2cccc(NC(=O)Nc3cc(F)ccc3C)c2)cc(N2CCOCC2)n1 [SI-046, 1-(5-Fluoro-2-methylphenyl)-3-(3-(2-methyl-6-morpholinopyrimidin-4-ylamino)phenyl)urea] |
| 0.685 | Cc1nc(Nc2ccc(NC(=O)Nc3ccc(F)c(Cl)c3)cc2)cc(N2CCOCC2)n1 [SI-008, 1-(3-Chloro-4-fluorophenyl)-3-(4-(2-methyl-6-morpholinopyrimidin-4-ylamino)phenyl)urea] |
